# In publication PMC10869683, “Structure of recombinant formate dehydrogenase from Methylobacterium extorquens (MeFDH1)” (Scientific Reports, 2024):
# How the values were obtained:
# [1] = molecular target: T1, recombinant MeFDH1 (alpha/beta heterodimer), MeFDH1-β FMN / diaphorase site (Methylorubrum extorquens, UniProt C5ATT6); assay: cryo-EM structure, […] Å; assay type: binding; conditions: FMN site at the center of the beta subunit
# T1 construct: gene fdh1B; same complex as P1, site in beta subunit; C-terminal His6 on alpha; expressed in M. extorquens AM1 fdh1 knockout; heterodimer ~169 kDa; with Formate dehydrogenase subunit alpha (tungsten-containing formate dehydrogenase alpha subunit)
# [2] = molecular target: T1, recombinant MeFDH1 (alpha/beta heterodimer), MeFDH1-β FMN / diaphorase site; assay: formate oxidation coupled to NAD+ reduction, A340; assay type: biochemical; conditions: 30 mM potassium formate, 0.5 mM NAD+, 50 mM MOPS, 30 °C; pH not given; site in beta inferred by homology
# [3] = molecular target: T2, recombinant MeFDH1 (alpha/beta heterodimer), MeFDH1-α active site (Methylorubrum extorquens, UniProt C5ATT7); conditions: 30 mM potassium formate, 0.5 mM NAD+, 50 mM MOPS, 30 °C; pH not given
# T2 construct: gene fdh1A
# T2 sequence (C5ATT7 1-989): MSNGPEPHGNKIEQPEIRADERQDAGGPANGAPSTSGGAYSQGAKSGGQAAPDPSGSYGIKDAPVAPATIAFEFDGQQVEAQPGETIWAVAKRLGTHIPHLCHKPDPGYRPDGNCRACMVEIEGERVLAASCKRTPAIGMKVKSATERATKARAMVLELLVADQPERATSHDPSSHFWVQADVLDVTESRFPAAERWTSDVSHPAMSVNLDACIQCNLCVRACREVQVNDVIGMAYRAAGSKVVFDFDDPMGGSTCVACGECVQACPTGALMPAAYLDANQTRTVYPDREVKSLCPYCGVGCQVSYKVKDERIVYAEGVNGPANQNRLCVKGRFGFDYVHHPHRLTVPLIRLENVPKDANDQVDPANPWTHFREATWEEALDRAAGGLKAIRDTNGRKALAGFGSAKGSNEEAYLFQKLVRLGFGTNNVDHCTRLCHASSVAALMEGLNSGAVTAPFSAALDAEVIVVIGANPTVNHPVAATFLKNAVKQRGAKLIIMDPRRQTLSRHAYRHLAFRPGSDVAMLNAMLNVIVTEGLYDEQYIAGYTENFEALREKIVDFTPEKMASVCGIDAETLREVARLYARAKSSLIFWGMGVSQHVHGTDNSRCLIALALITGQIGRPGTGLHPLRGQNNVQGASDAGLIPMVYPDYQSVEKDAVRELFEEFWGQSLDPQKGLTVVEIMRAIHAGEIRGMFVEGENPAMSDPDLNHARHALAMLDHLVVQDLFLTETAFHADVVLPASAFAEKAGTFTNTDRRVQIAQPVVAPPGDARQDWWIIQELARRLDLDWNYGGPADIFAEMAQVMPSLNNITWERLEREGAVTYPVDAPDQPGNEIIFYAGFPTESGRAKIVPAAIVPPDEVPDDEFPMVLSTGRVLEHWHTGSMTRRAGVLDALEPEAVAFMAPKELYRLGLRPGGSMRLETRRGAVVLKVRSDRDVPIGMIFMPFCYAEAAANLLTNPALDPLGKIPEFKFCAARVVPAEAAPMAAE
# T2 sequence (C5ATT6 1-572 partner): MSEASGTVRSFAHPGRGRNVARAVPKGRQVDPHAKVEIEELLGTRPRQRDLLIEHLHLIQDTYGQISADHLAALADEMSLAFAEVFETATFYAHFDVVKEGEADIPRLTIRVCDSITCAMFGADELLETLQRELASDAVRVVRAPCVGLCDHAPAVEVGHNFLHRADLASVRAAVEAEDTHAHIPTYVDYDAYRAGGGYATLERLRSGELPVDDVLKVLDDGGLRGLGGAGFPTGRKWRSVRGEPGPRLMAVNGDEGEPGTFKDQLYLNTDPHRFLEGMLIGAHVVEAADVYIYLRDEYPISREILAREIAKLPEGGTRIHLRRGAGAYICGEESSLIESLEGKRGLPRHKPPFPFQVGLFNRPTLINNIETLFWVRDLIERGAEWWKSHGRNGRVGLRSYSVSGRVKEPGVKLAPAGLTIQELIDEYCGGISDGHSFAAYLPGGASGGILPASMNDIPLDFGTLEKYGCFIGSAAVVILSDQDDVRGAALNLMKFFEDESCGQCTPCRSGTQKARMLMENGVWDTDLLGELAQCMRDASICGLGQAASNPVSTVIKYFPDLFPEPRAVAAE
smiles,measurement,setting,value
Cc1cc2nc3c(=O)[nH]c(=O)nc-3n(C[C@H](O)[C@H](O)[C@H](O)COP(=O)(O)O)c2cc1C [FMN],"cryo-EM structure, 2.8 Å",[1],FMN is coordinated at the center of the MeFDH1-β subunit
NC(=O)c1ccc[n+]([C@@H]2O[C@H](COP(=O)(O)OP(=O)(O)OC[C@H]3O[C@@H](n4cnc5c(N)ncnc54)[C@H](O)[C@@H]3O)[C@@H](O)[C@H]2O)c1 [NAD^+],"formate oxidation coupled to NAD+ reduction, A340",[2],measuring its formate oxidation reaction coupled with NAD^+ reduction
O=CO [formate],"formate oxidation coupled to NAD+ reduction, A340",[3],measuring its formate oxidation reaction coupled with NAD^+ reduction
